Source: publication PMC11233931, “Remodeling tumor‐associated macrophage for anti‐cancer effects by rational design of irreversible inhibition of mitogen‐activated protein kinase‐activated protein kinase 2” (MedComm, 2024)
Where two headings read alike, the source gives them in different places.

Legend:
Test in all cases: Eurofins kinase selectivity profile against 380 other human recombinant kinases (Table S2)
Assay type in all cases: biochemical
[1] = biological target: T1, 380 human recombinant protein kinases (Homo sapiens, UniProt Q9P289); conditions: MST4(h), read-out: Inhibition rate
T1 construct: purchased Eurofins (Celle Lévescault)
Summary of the method: (§1)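 To gauge specificity for MK2, the compound is profiled externally at various concentrations on recombinant human kinases, 380 in total.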

[2] = biological target: T2, 380 human recombinant protein kinases (Homo sapiens, UniProt O60285); conditions: ARK5(h), read-out: Inhibition rate
T2 construct: purchased Eurofins (Celle Lévescault)
T2 sequence (O60285 1-661): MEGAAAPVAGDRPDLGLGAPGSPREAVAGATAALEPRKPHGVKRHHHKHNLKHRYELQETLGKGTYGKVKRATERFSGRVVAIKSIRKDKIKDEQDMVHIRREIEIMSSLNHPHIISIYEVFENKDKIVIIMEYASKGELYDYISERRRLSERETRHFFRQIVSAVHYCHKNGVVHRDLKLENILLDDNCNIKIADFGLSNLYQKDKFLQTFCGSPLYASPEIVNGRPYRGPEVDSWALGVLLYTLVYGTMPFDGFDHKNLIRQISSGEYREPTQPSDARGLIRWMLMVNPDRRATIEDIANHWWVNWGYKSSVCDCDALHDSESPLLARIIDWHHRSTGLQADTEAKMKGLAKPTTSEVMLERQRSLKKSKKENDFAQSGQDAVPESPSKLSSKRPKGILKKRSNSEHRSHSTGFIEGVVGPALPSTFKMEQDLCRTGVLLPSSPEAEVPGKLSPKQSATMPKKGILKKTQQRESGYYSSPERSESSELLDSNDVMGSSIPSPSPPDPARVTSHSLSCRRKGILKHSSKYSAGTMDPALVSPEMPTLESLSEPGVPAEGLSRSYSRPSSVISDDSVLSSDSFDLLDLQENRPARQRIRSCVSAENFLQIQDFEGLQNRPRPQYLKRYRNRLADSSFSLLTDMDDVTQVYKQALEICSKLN
Summary of the method: as §1

[3] = biological target: T3, 380 human recombinant protein kinases (Homo sapiens, UniProt Q9P2K8); conditions: GCN2(h), read-out: Inhibition rate
T3 construct: purchased Eurofins (Celle Lévescault)
Summary of the method: as §1

[4] = biological target: T4, 380 human recombinant protein kinases (Homo sapiens, UniProt Q5S007); conditions: LRRK2(h), read-out: Inhibition rate
T4 construct: purchased Eurofins (Celle Lévescault)
Summary of the method: as §1

[5] = biological target: T5, 380 human recombinant protein kinases (Homo sapiens, UniProt Q13882); conditions: BRK(h), read-out: Inhibition rate
T5 construct: purchased Eurofins (Celle Lévescault)
Summary of the method: as §1

[6] = biological target: T6, 380 human recombinant protein kinases (Homo sapiens, UniProt P42345); conditions: read-out: Inhibition rate; for inhibition at 0.01 µM: 10 nM; for inhibition at 0.1 µM: 100 nM; for inhibition at 1 µM: 1000 nM
T6 construct: purchased Eurofins (Celle Lévescault)
Summary of the method: as §1

[7] = biological target: T7, 380 human recombinant protein kinases (Homo sapiens, UniProt Q06187); conditions: BTK(h), read-out: Inhibition rate
T7 construct: purchased Eurofins (Celle Lévescault)
Summary of the method: as §1

[8] = biological target: T8, 380 human recombinant protein kinases (Homo sapiens, UniProt Q86UE8); conditions: TLK2(h), read-out: Inhibition rate (%)
T8 construct: purchased Eurofins (Celle Lévescault)
Summary of the method: as §1

[9] = biological target: T9, 380 human recombinant protein kinases (Homo sapiens, UniProt Q9UIK4); conditions: DAPK2(h), read-out: Inhibition rate
T9 construct: purchased Eurofins (Celle Lévescault)
Summary of the method: as §1

[10] = biological target: T10, 380 human recombinant protein kinases (Homo sapiens, UniProt O75676); conditions: MSK2(h), read-out: Inhibition rate
T10 construct: purchased Eurofins (Celle Lévescault)
Summary of the method: as §1

T5 sequence (Q13882 whole entry): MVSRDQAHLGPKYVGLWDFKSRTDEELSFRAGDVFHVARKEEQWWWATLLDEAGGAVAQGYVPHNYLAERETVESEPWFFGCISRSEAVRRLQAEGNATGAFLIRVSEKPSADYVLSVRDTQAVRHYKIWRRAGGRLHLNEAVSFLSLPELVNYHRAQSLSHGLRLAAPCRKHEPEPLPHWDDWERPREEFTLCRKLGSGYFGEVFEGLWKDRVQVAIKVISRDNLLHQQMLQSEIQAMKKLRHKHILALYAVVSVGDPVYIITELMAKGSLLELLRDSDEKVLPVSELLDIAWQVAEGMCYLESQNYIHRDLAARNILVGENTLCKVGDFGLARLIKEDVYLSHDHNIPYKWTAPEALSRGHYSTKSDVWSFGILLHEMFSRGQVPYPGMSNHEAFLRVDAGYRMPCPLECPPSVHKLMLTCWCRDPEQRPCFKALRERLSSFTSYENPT
T10 sequence (O75676 whole entry): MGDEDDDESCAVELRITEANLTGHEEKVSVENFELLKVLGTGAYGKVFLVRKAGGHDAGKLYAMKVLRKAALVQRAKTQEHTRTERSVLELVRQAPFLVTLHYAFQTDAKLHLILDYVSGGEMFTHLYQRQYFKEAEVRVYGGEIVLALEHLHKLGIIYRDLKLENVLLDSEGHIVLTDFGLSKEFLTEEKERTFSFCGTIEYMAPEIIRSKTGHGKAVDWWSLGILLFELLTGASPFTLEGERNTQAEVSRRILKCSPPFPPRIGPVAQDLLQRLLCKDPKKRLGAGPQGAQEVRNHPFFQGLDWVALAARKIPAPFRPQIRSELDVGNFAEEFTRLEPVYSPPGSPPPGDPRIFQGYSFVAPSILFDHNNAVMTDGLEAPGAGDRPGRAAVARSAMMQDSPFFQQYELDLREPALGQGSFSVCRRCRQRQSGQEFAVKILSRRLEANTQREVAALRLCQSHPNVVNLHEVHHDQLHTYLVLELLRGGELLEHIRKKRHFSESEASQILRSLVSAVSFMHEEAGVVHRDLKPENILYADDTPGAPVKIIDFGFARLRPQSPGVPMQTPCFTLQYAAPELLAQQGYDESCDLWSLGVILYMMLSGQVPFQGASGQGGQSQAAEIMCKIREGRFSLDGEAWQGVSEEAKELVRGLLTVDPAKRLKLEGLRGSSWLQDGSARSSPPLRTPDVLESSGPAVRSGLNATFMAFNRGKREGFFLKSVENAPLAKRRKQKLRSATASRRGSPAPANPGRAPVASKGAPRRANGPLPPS
T1 sequence (Q9P289 whole entry): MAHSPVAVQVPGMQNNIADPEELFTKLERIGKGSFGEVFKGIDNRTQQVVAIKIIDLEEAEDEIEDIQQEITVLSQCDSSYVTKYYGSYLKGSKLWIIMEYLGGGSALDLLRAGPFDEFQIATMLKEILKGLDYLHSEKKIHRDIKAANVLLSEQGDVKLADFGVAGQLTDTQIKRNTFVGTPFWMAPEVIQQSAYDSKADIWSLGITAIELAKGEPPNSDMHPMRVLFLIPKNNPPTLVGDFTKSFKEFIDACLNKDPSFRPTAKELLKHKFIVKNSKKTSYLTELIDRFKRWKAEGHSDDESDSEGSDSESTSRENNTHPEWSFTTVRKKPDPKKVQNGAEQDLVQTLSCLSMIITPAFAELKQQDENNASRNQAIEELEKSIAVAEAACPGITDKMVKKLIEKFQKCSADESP
T3 sequence (Q9P2K8 whole entry): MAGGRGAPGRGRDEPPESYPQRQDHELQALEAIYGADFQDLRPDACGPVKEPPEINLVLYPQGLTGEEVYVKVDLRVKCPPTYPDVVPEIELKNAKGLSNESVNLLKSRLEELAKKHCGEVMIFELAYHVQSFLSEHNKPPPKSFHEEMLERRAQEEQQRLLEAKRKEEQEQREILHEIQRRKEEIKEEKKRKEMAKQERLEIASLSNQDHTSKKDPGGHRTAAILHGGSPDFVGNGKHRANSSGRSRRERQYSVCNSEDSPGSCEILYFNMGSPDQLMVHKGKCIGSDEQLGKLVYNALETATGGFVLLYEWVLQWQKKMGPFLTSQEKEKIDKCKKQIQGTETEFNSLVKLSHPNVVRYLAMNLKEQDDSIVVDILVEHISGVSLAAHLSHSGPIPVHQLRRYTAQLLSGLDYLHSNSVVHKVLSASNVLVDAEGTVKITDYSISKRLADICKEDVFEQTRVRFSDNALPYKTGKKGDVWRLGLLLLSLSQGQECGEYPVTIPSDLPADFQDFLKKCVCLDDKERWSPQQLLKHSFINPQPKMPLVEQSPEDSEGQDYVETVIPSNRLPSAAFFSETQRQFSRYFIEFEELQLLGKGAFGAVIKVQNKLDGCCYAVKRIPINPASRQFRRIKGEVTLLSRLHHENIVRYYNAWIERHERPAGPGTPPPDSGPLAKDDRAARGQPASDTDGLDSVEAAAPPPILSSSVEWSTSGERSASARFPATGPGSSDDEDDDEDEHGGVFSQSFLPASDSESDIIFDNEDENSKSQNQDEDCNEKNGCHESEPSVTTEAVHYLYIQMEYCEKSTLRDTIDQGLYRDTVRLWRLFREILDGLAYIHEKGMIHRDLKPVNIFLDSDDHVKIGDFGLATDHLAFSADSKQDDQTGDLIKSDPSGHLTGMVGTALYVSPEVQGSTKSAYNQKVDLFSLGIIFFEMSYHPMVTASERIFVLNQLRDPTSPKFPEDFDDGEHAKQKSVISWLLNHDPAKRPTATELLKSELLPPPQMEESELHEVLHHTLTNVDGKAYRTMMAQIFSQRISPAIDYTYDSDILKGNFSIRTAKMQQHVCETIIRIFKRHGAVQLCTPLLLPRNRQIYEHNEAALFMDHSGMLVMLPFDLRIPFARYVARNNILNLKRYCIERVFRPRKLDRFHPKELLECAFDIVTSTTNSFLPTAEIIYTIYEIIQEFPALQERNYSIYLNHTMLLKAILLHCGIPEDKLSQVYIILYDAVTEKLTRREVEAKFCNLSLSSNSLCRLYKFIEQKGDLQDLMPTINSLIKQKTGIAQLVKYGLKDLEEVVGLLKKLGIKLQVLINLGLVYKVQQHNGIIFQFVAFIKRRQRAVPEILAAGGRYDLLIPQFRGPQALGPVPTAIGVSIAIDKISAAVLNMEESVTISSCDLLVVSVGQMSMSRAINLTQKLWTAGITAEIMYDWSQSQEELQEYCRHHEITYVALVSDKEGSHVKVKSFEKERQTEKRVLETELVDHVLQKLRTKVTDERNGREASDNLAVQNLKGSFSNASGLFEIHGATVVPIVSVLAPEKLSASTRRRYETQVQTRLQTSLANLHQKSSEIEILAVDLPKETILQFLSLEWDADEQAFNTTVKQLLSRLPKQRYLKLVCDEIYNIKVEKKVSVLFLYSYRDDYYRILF
T7 sequence (Q06187 whole entry): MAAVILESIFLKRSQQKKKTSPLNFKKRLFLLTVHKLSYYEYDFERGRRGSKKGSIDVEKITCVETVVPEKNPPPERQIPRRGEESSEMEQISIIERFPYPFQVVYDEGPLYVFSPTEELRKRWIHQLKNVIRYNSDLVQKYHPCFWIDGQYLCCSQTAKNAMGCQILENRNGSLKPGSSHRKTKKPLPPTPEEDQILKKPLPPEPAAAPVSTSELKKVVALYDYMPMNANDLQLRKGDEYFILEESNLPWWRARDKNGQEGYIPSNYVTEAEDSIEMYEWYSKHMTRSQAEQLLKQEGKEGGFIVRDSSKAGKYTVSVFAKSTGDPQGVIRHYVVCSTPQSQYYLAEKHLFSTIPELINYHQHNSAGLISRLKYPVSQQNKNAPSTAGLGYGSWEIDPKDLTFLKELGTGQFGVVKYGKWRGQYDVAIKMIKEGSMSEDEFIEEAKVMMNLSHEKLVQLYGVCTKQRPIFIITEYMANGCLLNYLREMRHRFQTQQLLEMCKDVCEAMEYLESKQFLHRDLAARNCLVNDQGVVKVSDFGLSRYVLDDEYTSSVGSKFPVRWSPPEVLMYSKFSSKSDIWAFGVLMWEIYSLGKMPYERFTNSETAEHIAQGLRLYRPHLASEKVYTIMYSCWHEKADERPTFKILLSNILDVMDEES
T9 sequence (Q9UIK4 whole entry): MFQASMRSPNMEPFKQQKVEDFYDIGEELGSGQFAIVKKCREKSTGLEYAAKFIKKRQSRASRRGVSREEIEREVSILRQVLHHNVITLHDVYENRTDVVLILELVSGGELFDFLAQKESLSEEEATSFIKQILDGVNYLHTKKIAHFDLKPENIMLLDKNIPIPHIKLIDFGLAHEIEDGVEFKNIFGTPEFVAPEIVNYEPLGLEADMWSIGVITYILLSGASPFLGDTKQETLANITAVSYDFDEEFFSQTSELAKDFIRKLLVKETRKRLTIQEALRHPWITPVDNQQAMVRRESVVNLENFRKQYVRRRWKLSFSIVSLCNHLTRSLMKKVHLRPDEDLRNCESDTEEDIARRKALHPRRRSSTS

Molecule `C=CC(=O)Nc1cc(-c2cc(-c3cc4c([nH]3)CCNC4=O)ccn2)ccc1OC(F)(F)F` [compound 11] has an inhibition at 0.01 µM ([1]; 10 nM) of -5%, an inhibition at 0.1 µM ([1]; 100 nM) of -8% and an inhibition at 1 µM ([1]; 1000 nM) of 2%. For the same molecule, the inhibition at 0.01 µM ([2]; 10 nM) was -2%, the inhibition at 0.1 µM ([2]; 100 nM) was 14% and the inhibition at 1 µM ([2]; 1000 nM) was 28%. The inhibition at 0.01 µM ([3]; 10 nM) was 7%, the inhibition at 0.1 µM ([3]; 100 nM) was 9% and the inhibition at 1 µM ([3]; 1000 nM) was 5%. It also gave an inhibition at 0.01 µM ([4]; 10 nM) of -4%, an inhibition at 0.1 µM ([4]; 100 nM) of 17% and an inhibition at 1 µM ([4]; 1000 nM) of 74%. It also gave an inhibition at 0.01 µM ([5]; 10 nM) of 0%, an inhibition at 0.1 µM ([5]; 100 nM) of -5% and an inhibition at 1 µM ([5]; 1000 nM) of -7%. It also gave an inhibition at 0.01 µM ([6]; mTOR(h)) of -1%, an inhibition at 0.1 µM ([6]; mTOR(h)) of 2% and an inhibition at 1 µM ([6]; mTOR(h)) of 7%. The inhibition at 0.01 µM ([6]; mTOR/FKBP12(h)) was 8%, the inhibition at 0.1 µM ([6]; mTOR/FKBP12(h)) was 12% and the inhibition at 1 µM ([6]; mTOR/FKBP12(h)) was 6%. The inhibition at 0.01 µM ([7]; 10 nM) was -4%, the inhibition at 0.1 µM ([7]; 100 nM) was 10% and the inhibition at 1 µM ([7]; 1000 nM) was 17%. It also gave an inhibition at 0.01 µM ([8]; 10 nM) of 13%, an inhibition at 0.1 µM ([8]; 100 nM) of 1% and an inhibition at 1 µM ([8]; 1000 nM) of -2%. The inhibition at 0.01 µM ([9]; 10 nM) was 8%, the inhibition at 0.1 µM ([9]; 100 nM) was 3% and the inhibition at 1 µM ([9]; 1000 nM) was 13%. It also gave an inhibition at 0.01 µM ([10]; 10 nM) of -8%, an inhibition at 0.1 µM ([10]; 100 nM) of -5% and an inhibition at 1 µM ([10]; 1000 nM) of -13%.
